# In article PMC8765460 (Antimicrobial Agents and Chemotherapy, 2022):
# Read-outs that look alike come from different tables or passages of the source.
# Assays:
# [1] = target: T1, wild-type integrase-DNA complex (Human immunodeficiency virus type 1 group M subtype B, UniProt P04585); assay: Dissociation of 3H-labeled INSTIs from integrase-DNA complexes (scintillation proximity assay); format: binding, HIV-1; conditions: for t1/2 (dissociative half-life): Wild-type integrase-DNA complex, ln 2 divided by mean koff; for koff: read-out: koff (mean ± SD)
# Protocol: (§1) Dissociation of INSTIs from integrase-DNA complexes was evaluated as previously described ([35]). Briefly, biotinylated viral long-terminal-repeat DNA duplexes were prepared and attached to streptavidin-coated scintillation proximity assay imaging beads. Wild-type and R263K, G118R, or G118R/E138K mutant integrase-DNA-bead complexes were formed, and unbound protein was removed. […] Relative binding (RB) was calculated as the ratio of dissociation signal to high signal and fit with the equation RB = EP + ΔRB(e^−^k^off^t), where EP is the RB endpoint, koff is the dissociation rate constant, ΔRB is the change in RB, and t is time, using the SigmaPlot program (Systat Software, San Jose, CA).
# [2] = target: G118R/E138K integrase-DNA complex (Human immunodeficiency virus type 1 group M subtype B, UniProt P04585, E1285K/G1265R); assay: as above; format: binding, HIV-1; conditions: for t1/2 (dissociative half-life): G118R, E138K integrase-DNA complex, ln 2 divided by mean koff
# Protocol: as §1
# [3] = target: G118R integrase-DNA complex (Human immunodeficiency virus type 1 group M subtype B, UniProt P04585, G1265R); assay: as above; format: binding, HIV-1; conditions: for t1/2 (dissociative half-life): ln 2 divided by mean koff
# Protocol: as §1
# [4] = target: R263K integrase-DNA complex (Human immunodeficiency virus type 1 group M subtype B, UniProt P04585, R1410K); assay: as above; format: binding, HIV-1; conditions: for t1/2 (dissociative half-life): ln 2 divided by mean koff
# Protocol: as §1
# HIV-1 [5] = conditions: 12 participants switched at week 48
# Description: Confirmed virologic withdrawal criteria were defined as 2 consecutive measurements with a decrease in plasma HIV-1 RNA of <1.0 log10 copies/mL by week 16 (unless HIV-1 RNA levels were <400 copies/mL), plasma HIV-1 RNA levels of ≥400 copies/mL at or after week 24, or plasma HIV-1 RNA levels of ≥400 copies/mL after confirmed HIV-1 RNA levels of <400 copies/mL. Participants who met CVW criteria were withdrawn from the study. For this ad hoc assessment carried out after the week 48 analysis, participants with available data through 12 September 2019 were included.
# [6] = test system: recombinant viruses containing participant-derived integrase sequences; conditions: for Fold change in dolutegravir sensitivity: fold change in IC50 relative to wild-type, clinical cutoff 4.0
# Protocol: HIV-1 genotyping and phenotyping of plasma samples at baseline and the first sample of the 2 required to meet CVW criteria were conducted by Monogram Biosciences (South San Francisco, CA) using PhenoSense Integrase, PhenoSense GT, and GeneSeq Integrase assays, with the PhenoSense GT Plus Integrase assay used as a backup alternative in case of initial resistance assay failure.
# HIV-1 [7] = test system: HIV-1; set-up: method as in PMID 30732940; conditions: cited from earlier work
# [8] = test system: HIV-1 variant clones (participant-derived integrase); assay: Clonal integrase phenotyping of variant clones (Monogram Biosciences); format: cell-based; conditions: fold change in IC50 relative to wild-type
# [9] = target: T1, wild-type integrase-DNA complex; conditions: cited from earlier work
# [10] = patient 1, Baseline, R263K clones (3 clones)
# [11] = patient 1, Baseline, Wild-type clones (5 clones)
# [12] = patient 1, CVW (wk 36), Wild-type clones (8 clones)
# [13] = patient 2, Baseline, T66I clone (1 clone)
# [14] = patient 2, Baseline, Wild-type clones (7 clones)
# [15] = patient 2, CVW (wk 36), G118R clones (8 clones)
# [16] = patient 3, Baseline, Wild-type clones (16 clones)
# [17] = patient 3, CVW (wk 48), G118R, E138K, R263K clones (13 clones)
# [18] = patient 3, CVW (wk 48), H51Y, G118R clones (3 clones)
structure (smiles),measurement,setting,value
"C[C@@H]1CCO[C@H]2Cn3cc(C(=O)NCc4ccc(F)cc4F)c(=O)c(O)c3C(=O)N12 [Dolutegravir, dolutegravir]",t1/2 (dissociative half-life),[1],92 h
same,koff,[1],2.1e-06 ± 1e-07 s⁻¹
same,fold increase in dissociation rate constant (koff) relative to the wild type,[2]; G118R plus E138K integrase-DNA complex,9.0 fold
same,t1/2 (dissociative half-life),[2],10.1 h
same,fold increase in dissociation rate constant (koff) relative to the wild type,[3],8.6 fold
same,t1/2 (dissociative half-life),[3],10.7 h
same,t1/2 (dissociative half-life),[3]; listed as dolutegravir,~10 h
same,fold increase in dissociation rate constant (koff) relative to the wild type,[4],1.8 fold
same,t1/2 (dissociative half-life),[4],52 h
same,t1/2 (dissociative half-life),[4]; listed as dolutegravir,~50 h
same,INSTI resistance in participants who switched from ritonavir-boosted lopinavir to the dolutegravir regimen,HIV-1 [5],None of the 12 participants
same,change in in vitro dolutegravir resistance versus baseline levels,[6]; 6 participants with treatment-emergent INSTI resistance-associated substitutions,> 10 fold
same,median fold change in dolutegravir susceptibility at CVW,[6]; participants with treatment-emergent integrase substitutions (6 participants),25
same,Fold change in dolutegravir sensitivity,"[6]; patient 1, Baseline, subtype C, INSTI mutation R263R/K",1.03
same,Fold change in dolutegravir sensitivity,"[6]; patient 1, Wk 36 (CVW), no INSTI mutation",0.79
same,Fold change in dolutegravir sensitivity,"[6]; patient 2, Baseline, subtype B",1.02
same,Fold change in dolutegravir sensitivity,"[6]; patient 2, Wk 36 (CVW), G118R",30
same,Fold change in dolutegravir sensitivity,"[6]; patient 3, Baseline, subtype C",1.26
same,Fold change in dolutegravir sensitivity,"[6]; patient 3, Wk 48 (CVW), H51H/Y, G118R, E138E/K, 263R/K",15
same,Fold change in dolutegravir sensitivity,"[6]; patient 4, Baseline, subtype A1, L74I",0.93
same,Fold change in dolutegravir sensitivity,"[6]; patient 4, Wk 48 (CVW), L74I, G118G/R, E138E/K, 148Q/R, R263R/K",20
same,Fold change in dolutegravir sensitivity,"[6]; patient 5, Baseline, subtype Complex",0.59
same,Fold change in dolutegravir sensitivity,"[6]; patient 5, Wk 60 (CVW), E138K, G140S, Q148H, N155H",>106.45
same,Fold change in dolutegravir sensitivity,"[6]; patient 6, Baseline, subtype C, L74L/I",0.6
same,Fold change in dolutegravir sensitivity,"[6]; patient 6, Wk 72 (CVW), T66T/I, L74I, G118R, E138E/K",22
same,Fold change in dolutegravir sensitivity,"[6]; patient 7, Baseline, subtype C",0.98
same,Fold change in dolutegravir sensitivity,"[6]; patient 7, Wk 168 (CVW), G118R",28
same,participants meeting CVW who developed treatment-emergent genotypic and phenotypic INSTI resistance,HIV-1 [7]; through the week 48 analysis,2 of 11
same,virologic suppression (HIV-1 RNA levels of <50 copies/mL) versus comparator,"HIV-1 [7]; week 48, both in combination with 2 NRTIs",superiority to ritonavir-boosted lopinavir
same,Fold change in median drug sensitivity,[8]; [10],1.81
same,Fold change in median drug sensitivity,[8]; [11],0.87
same,Fold change in median drug sensitivity,[8]; [12],0.77
same,Fold change in median drug sensitivity,[8]; [13],0.33
same,Fold change in median drug sensitivity,[8]; [14],0.93
same,Fold change in median drug sensitivity,[8]; [15],30.5
same,Fold change in median drug sensitivity,[8]; [16],1.08
same,Fold change in median drug sensitivity,[8]; [17],13
same,Fold change in median drug sensitivity,[8]; [18],11
"Cc1nnc(C(=O)NC(C)(C)c2nc(C(=O)NCc3ccc(F)cc3)c(O)c(=O)n2C)o1 [Raltegravir, raltegravir]",t1/2 (dissociative half-life),[1],9.2 h
same,koff,[1],2.1e-05 ± 2e-06 s⁻¹
same,t1/2 (dissociative half-life),[2],3.2 h
same,fold increase in dissociation rate constant (koff) relative to the wild type,[3],3.4 fold
same,t1/2 (dissociative half-life),[3],2.7 h
same,fold increase in dissociation rate constant (koff) relative to the wild type,[4],no change in koff
same,t1/2 (dissociative half-life),[4],9.6 h
same,"t1/2 (dissociative half-life), previously measured",[9],8.8 h
same,Fold change in median drug sensitivity,[8]; [10],1.09
same,Fold change in median drug sensitivity,[8]; [11],0.88
same,Fold change in median drug sensitivity,[8]; [12],0.89
same,Fold change in median drug sensitivity,[8]; [13],0.58
same,Fold change in median drug sensitivity,[8]; [14],1.18
same,Fold change in median drug sensitivity,[8]; [15],24
same,Fold change in median drug sensitivity,[8]; [16],1.03
same,Fold change in median drug sensitivity,[8]; [17],2.03
same,Fold change in median drug sensitivity,[8]; [18],4.43
